Columns and labels:
Assay in all cases: Kinase panel selectivity profiling
Format in all cases: biochemical
[1] = molecular target: EPH-A2 (Homo sapiens, UniProt P29317); conditions: TBID 1 μM, 125 kinase panel, read-out: % activity of the enzyme
From the text: (§1) The source of HIPK2 and of all of the other protein kinases used for specificity assays is as described elsewhere.
(§2) Conditions for the activity assays of all other protein kinases tested in selectivity experiments are as described or referenced in [9].

[2] = molecular target: BRSK1 (Homo sapiens, UniProt Q8TDC3); conditions: TBID 1 μM, 125 kinase panel, read-out: % activity of the enzyme
From the text: as §1, §2

[3] = molecular target: MINK1 (Homo sapiens, UniProt Q8N4C8); conditions: TBID 1 μM, 125 kinase panel, read-out: % activity of the enzyme
From the text: as §1, §2

[4] = molecular target: CLK2 (Homo sapiens, UniProt P49760); conditions: TBID 1 μM, 125 kinase panel, read-out: % activity of the enzyme
From the text: as §1, §2

[5] = molecular target: BRK (Homo sapiens, UniProt Q13882); conditions: TBID 1 μM, 125 kinase panel, read-out: % activity of the enzyme
From the text: as §1, §2

[6] = molecular target: ERK2 (Homo sapiens, UniProt P28482); conditions: TBID 1 μM, 125 kinase panel, read-out: % activity of the enzyme
From the text: as §1, §2

[7] = molecular target: TESK1 (Homo sapiens, UniProt Q15569); conditions: TBID 1 μM, 125 kinase panel, read-out: % activity of the enzyme
From the text: as §1, §2

[8] = molecular target: MLK3 (Homo sapiens, UniProt Q16584); conditions: TBID 1 μM, 125 kinase panel, read-out: % activity of the enzyme
From the text: as §1, §2

[9] = molecular target: HER4 (Homo sapiens, UniProt Q15303); conditions: TBID 1 μM, 125 kinase panel, read-out: % activity of the enzyme
From the text: as §1, §2

[10] = molecular target: FGF-R1 (Homo sapiens, UniProt P11362); conditions: TBID 1 μM, 125 kinase panel, read-out: % activity of the enzyme
FGF-R1, sequence (P11362 22-822): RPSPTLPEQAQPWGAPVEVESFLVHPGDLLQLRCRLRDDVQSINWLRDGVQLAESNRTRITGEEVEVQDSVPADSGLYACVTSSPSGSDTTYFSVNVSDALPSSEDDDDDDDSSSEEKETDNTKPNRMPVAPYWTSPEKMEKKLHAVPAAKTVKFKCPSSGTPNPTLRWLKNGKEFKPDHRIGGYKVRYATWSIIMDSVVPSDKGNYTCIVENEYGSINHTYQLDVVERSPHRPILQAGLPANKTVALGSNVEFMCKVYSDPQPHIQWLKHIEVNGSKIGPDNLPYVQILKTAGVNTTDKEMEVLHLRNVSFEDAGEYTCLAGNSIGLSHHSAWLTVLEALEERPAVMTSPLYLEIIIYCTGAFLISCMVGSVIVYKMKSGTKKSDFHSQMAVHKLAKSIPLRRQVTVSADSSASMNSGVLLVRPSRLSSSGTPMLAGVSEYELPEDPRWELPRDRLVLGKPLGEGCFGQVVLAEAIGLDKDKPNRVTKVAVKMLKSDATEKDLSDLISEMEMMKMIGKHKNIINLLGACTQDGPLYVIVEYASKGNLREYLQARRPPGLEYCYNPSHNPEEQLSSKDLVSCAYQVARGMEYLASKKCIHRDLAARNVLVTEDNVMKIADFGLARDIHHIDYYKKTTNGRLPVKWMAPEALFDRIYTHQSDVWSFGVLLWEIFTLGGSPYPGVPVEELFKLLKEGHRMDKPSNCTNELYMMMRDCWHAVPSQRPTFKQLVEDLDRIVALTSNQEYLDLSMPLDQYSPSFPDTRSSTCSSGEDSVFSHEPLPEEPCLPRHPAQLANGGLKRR
From the text: as §1, §2

[11] = molecular target: PKBa (Homo sapiens, UniProt P31749); conditions: TBID 1 μM, 125 kinase panel, read-out: % activity of the enzyme
From the text: as §1, §2

[12] = molecular target: EPH-A4 (Homo sapiens, UniProt P54764); conditions: TBID 1 μM, 125 kinase panel, read-out: % activity of the enzyme
From the text: as §1, §2

[13] = molecular target: CSK (Homo sapiens, UniProt P41240); conditions: TBID 1 μM, 125 kinase panel, read-out: % activity of the enzyme
From the text: as §1, §2

[14] = molecular target: OSR1 (Homo sapiens, UniProt O95747); conditions: TBID 1 μM, 125 kinase panel, read-out: % activity of the enzyme
From the text: as §1, §2

[15] = molecular target: Lck (Homo sapiens, UniProt P06239); conditions: TBID 1 μM, 125 kinase panel, read-out: % activity of the enzyme
From the text: as §1, §2

[16] = molecular target: Src (Homo sapiens, UniProt P12931); conditions: TBID 1 μM, 125 kinase panel, read-out: % activity of the enzyme
From the text: as §1, §2

[17] = molecular target: MELK (Homo sapiens, UniProt Q14680); conditions: TBID 1 μM, 125 kinase panel, read-out: % activity of the enzyme
From the text: as §1, §2

[18] = molecular target: MST4 (Homo sapiens, UniProt Q9P289); conditions: TBID 1 μM, 125 kinase panel, read-out: % activity of the enzyme
From the text: as §1, §2

[19] = molecular target: PKBb (Homo sapiens, UniProt P31751); conditions: TBID 1 μM, 125 kinase panel, read-out: % activity of the enzyme
From the text: as §1, §2

[20] = molecular target: TTBK1 (Homo sapiens, UniProt Q5TCY1); conditions: TBID 1 μM, 125 kinase panel, read-out: % activity of the enzyme
From the text: as §1, §2

[21] = molecular target: IKKb (Homo sapiens, UniProt O14920); conditions: TBID 1 μM, 125 kinase panel, read-out: % activity of the enzyme
From the text: as §1, §2

[22] = molecular target: ROCK 2 (Homo sapiens, UniProt O75116); conditions: TBID 1 μM, 125 kinase panel, read-out: % activity of the enzyme
ROCK 2, sequence (O75116 whole entry): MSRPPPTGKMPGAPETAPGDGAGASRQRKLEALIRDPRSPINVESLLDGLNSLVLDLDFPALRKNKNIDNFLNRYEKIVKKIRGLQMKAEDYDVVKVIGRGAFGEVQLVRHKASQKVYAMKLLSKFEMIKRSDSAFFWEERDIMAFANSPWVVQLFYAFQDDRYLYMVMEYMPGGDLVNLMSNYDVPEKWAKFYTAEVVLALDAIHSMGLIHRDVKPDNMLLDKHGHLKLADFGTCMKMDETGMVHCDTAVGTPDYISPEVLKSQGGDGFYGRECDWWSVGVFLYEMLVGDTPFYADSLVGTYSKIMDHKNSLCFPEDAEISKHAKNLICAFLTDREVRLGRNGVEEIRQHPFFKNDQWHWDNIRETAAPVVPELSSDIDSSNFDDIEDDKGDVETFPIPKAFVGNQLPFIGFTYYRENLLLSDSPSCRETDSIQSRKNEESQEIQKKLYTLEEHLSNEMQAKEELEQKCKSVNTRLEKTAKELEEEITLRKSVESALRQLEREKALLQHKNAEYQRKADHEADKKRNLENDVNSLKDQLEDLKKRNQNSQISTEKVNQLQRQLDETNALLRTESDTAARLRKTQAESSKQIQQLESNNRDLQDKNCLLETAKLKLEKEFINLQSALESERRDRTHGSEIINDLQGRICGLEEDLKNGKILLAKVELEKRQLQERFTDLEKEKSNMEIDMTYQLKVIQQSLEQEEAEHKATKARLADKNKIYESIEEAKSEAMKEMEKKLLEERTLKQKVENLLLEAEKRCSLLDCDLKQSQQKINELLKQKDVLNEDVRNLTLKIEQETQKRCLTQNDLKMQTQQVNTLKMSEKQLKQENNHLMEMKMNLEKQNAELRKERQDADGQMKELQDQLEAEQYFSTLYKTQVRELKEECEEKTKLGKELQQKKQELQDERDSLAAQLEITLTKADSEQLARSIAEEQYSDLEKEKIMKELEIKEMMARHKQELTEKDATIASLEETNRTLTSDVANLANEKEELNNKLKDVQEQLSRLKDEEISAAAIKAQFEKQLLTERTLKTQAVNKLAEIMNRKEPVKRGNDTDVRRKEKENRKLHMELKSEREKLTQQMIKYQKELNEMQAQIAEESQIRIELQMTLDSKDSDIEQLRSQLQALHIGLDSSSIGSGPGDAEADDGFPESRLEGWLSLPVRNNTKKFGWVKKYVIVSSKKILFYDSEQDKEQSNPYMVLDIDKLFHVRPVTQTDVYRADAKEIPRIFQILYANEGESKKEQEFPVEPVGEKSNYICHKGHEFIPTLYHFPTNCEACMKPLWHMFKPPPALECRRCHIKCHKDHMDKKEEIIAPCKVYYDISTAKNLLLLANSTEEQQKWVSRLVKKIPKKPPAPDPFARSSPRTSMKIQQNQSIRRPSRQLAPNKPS
From the text: as §1, §2

[23] = molecular target: GSK3b (Homo sapiens, UniProt P49841); conditions: TBID 1 μM, 125 kinase panel, read-out: % activity of the enzyme
GSK3b, sequence (P49841 whole entry): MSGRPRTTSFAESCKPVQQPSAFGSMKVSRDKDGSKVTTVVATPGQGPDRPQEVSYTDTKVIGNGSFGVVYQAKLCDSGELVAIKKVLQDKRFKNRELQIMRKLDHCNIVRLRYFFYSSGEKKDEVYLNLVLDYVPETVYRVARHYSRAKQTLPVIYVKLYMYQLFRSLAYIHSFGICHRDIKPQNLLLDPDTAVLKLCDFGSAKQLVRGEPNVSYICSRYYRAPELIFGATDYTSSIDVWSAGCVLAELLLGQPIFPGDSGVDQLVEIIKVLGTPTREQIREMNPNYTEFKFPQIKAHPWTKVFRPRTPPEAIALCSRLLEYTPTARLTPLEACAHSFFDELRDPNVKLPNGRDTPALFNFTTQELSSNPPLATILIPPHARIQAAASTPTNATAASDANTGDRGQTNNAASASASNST
From the text: as §1, §2

[24] = molecular target: SGK1 (Homo sapiens, UniProt O00141); conditions: TBID 1 μM, 125 kinase panel, read-out: % activity of the enzyme
From the text: as §1, §2

[25] = molecular target: JNK3 (Homo sapiens, UniProt P53779); conditions: TBID 1 μM, 125 kinase panel, read-out: % activity of the enzyme
From the text: as §1, §2

[26] = molecular target: JAK2 (Homo sapiens, UniProt O60674); conditions: TBID 1 μM, 125 kinase panel, read-out: % activity of the enzyme
From the text: as §1, §2

[27] = molecular target: PIM3 (Homo sapiens, UniProt Q86V86); conditions: TBID 1 μM, 125 kinase panel, read-out: % activity of the enzyme
From the text: as §1, §2

[28] = molecular target: MARK1 (Homo sapiens, UniProt Q9P0L2); conditions: TBID 1 μM, 125 kinase panel, read-out: % activity of the enzyme
From the text: as §1, §2

[29] = molecular target: VEG-FR (Homo sapiens, UniProt P17948); conditions: TBID 1 μM, 125 kinase panel, read-out: % activity of the enzyme
From the text: as §1, §2

[30] = molecular target: PAK5 (Homo sapiens, UniProt Q9P286); conditions: TBID 1 μM, 125 kinase panel, read-out: % activity of the enzyme
From the text: as §1, §2

[31] = molecular target: JNK2 (Homo sapiens, UniProt P45984); conditions: TBID 1 μM, 125 kinase panel, read-out: % activity of the enzyme
From the text: as §1, §2

[32] = molecular target: T1, PIM1 (Homo sapiens, UniProt P11309)
T1 construct: The source of HIPK2 and of all of the other protein kinases used for specificity assays is as described elsewhere
T1 sequence (P11309 whole entry, species assumed): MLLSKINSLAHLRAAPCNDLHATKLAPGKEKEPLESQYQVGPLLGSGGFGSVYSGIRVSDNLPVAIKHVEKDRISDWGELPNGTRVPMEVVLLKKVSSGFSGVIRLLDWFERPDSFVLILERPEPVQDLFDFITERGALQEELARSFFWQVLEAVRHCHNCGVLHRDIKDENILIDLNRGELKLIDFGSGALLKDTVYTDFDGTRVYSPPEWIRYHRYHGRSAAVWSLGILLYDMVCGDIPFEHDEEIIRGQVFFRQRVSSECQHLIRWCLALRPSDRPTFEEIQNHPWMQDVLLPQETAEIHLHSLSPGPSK
From the text: as §1, §2

[33] = molecular target: MPSK1 (Homo sapiens, UniProt O75716); conditions: TBID 1 μM, 125 kinase panel, read-out: % activity of the enzyme
From the text: as §1, §2

[34] = molecular target: CK2 (Homo sapiens, UniProt P68400)
CK2, sequence (P68400 whole entry): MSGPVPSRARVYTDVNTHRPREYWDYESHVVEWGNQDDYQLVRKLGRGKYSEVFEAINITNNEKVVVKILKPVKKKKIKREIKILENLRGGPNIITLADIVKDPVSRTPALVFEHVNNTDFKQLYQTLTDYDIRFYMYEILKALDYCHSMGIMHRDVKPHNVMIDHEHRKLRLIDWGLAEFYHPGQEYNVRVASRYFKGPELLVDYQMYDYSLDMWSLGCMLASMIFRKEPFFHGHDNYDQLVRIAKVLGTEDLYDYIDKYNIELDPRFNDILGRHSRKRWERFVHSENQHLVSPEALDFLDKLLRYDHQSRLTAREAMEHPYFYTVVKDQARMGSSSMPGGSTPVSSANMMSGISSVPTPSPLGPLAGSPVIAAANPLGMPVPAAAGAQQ
From the text: as §1, §2

[35] = molecular target: RSK2 (Homo sapiens, UniProt P51812); conditions: TBID 1 μM, 125 kinase panel, read-out: % activity of the enzyme
From the text: as §1, §2

[36] = molecular target: MARK4 (Homo sapiens, UniProt Q96L34); conditions: TBID 1 μM, 125 kinase panel, read-out: % activity of the enzyme
From the text: as §1, §2

[37] = molecular target: MARK3 (Homo sapiens, UniProt P27448); conditions: TBID 1 μM, 125 kinase panel, read-out: % activity of the enzyme
From the text: as §1, §2

[38] = molecular target: SYK (Homo sapiens, UniProt P43405); conditions: TBID 1 μM, 125 kinase panel, read-out: % activity of the enzyme
From the text: as §1, §2

[39] = molecular target: SRPK1 (Homo sapiens, UniProt Q96SB4); conditions: TBID 1 μM, 125 kinase panel, read-out: % activity of the enzyme
From the text: as §1, §2

[40] = molecular target: TTK (Homo sapiens, UniProt P33981); conditions: TBID 1 μM, 125 kinase panel, read-out: % activity of the enzyme
From the text: as §1, §2

[41] = molecular target: IGF-1R (Homo sapiens, UniProt P08069); conditions: TBID 1 μM, 125 kinase panel, read-out: % activity of the enzyme
IGF-1R, sequence (P08069 31-1367): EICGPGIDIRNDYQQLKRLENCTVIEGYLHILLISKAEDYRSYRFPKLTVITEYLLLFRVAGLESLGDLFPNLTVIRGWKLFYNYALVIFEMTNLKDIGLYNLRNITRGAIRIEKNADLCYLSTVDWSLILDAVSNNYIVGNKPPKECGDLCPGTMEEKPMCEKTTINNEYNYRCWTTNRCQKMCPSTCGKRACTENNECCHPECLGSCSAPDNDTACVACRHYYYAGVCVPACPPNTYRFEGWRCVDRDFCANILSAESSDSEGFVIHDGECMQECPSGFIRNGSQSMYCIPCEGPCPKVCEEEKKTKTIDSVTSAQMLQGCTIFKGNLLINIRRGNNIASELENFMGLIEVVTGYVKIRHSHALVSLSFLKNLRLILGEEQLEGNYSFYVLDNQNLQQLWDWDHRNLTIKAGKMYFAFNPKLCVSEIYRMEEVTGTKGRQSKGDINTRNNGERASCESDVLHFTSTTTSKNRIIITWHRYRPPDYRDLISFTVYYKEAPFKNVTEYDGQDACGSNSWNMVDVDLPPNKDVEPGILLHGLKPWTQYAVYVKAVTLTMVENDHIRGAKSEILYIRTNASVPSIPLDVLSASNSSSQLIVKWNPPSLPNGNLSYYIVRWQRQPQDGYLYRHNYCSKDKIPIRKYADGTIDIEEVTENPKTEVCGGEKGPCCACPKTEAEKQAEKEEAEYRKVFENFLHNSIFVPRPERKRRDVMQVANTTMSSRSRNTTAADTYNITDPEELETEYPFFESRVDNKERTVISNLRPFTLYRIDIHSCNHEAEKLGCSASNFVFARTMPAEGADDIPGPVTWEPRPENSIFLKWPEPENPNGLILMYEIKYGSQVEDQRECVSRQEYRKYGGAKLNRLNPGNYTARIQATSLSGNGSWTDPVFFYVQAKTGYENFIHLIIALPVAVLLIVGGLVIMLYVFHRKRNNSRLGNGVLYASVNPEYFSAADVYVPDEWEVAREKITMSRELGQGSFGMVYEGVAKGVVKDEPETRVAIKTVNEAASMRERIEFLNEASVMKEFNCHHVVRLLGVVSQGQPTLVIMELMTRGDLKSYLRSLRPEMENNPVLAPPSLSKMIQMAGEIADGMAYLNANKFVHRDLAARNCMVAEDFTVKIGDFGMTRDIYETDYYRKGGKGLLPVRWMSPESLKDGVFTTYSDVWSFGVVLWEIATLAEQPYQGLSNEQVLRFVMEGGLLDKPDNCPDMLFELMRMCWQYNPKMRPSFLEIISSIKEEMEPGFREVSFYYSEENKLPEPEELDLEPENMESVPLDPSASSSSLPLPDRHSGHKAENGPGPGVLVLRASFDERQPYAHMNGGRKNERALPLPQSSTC
From the text: as §1, §2

[42] = TBID 1 μM, 125 kinase panel, read-out: % activity of the enzyme

O=C1c2c(Br)c(Br)c(Br)c(Br)c2C(=O)N1c1ncc[nH]1 [TBID, 4,5,6,7-Tetrabromo-2-(1H-imidazol-2-yl)isoindoline-1,3-dione]
activity at 1 µM [1]: 89%
activity at 1 µM [2]: 110%
activity at 1 µM [3]: 91%
activity at 1 µM [4]: 101%
activity at 1 µM [5]: 103%
activity at 1 µM [6]: 91%
activity at 1 µM [7]: 103%
activity at 1 µM [8]: 97%
activity at 1 µM [9]: 91%
activity at 1 µM [10]: 104%
activity at 1 µM [11]: 104%
activity at 1 µM [12]: 100%
activity at 1 µM [13]: 89%
activity at 1 µM [14]: 103%
activity at 1 µM [15]: 109%
activity at 1 µM [16]: 83%
activity at 1 µM [17]: 110%
activity at 1 µM [18]: 108%
activity at 1 µM [19]: 104%
activity at 1 µM [20]: 113%
activity at 1 µM [21]: 99%
activity at 1 µM [22]: 117%
activity at 1 µM [23]: 94%
activity at 1 µM [24]: 98%
activity at 1 µM [25]: 101%
activity at 1 µM [26]: 114%
activity at 1 µM [27]: 101%
activity at 1 µM [28]: 102%
activity at 1 µM [29]: 115%
activity at 1 µM [30]: 105%
activity at 1 µM [31]: 110%
residual activity ([32]; 10 µM TBID, panel of 76 protein kinases): entirely unaffected
activity at 1 µM [32, 42]: 104%
activity at 1 µM [33]: 93%
remaining activity at 10 µM ([34]; 10 µM TBID, panel of 76 protein kinases, read-out: residual activity): 48%
activity at 1 µM [34, 42]: 87%
activity at 1 µM [35]: 101%
activity at 1 µM [36]: 95%
activity at 1 µM [37]: 115%
activity at 1 µM [38]: 108%
activity at 1 µM [39]: 77%
activity at 1 µM [40]: 92%
activity at 1 µM [41]: 68%

From paper PMC3933419, “Synthesis and Properties of a Selective Inhibitor of Homeodomain–Interacting Protein Kinase 2 (HIPK2)” (PLoS ONE, 2014)
